Several values for one entry are separate records, joined by “and”; a condition that tells them apart may be missing. Equal values may be shown once.
How the values were obtained:
HCV/HIV pseudovirions = assay: microbe, parasite or virus in culture; format: cell-based, hepatitis C virus
HCV JFH1 = HCV JFH1 infectivity assay (JFH1 Foci Reduction Assay); format: cell-based, hepatitis C virus; conditions: virus preincubated with compound; Huh 7 cells; 48 hr post infection; RD8, RD16, RD17, RD18 as glucosidase hydrolysis products
[1] = test system: hepatitis B surface antigen (HBsAg) production; assay: Anti-HBSAg Assay (Procedure A); format: cell-based, hepatitis B virus; conditions: 50 μg/ml
Protocol: The HBV-producing human hepatoblastoma cell line, Hep G2.2.15 was maintained in DMEM supplemented with 10% fetal bovine serum (FBS), 2 mM glutamine, 100 units/ml penicillin, 100 μg/ml streptomycin and 380 μg/ml gentamicin sulfate (G418) at 37° C. under 5% CO2 in air. The Hep G2 parental cells were grown under identical conditions in MEM with Earle's salts without G418.
Hep G2.2.15 cells (190 μl) were seeded onto microtiter plates at a concentration of 20×10^4 cells/ml. The cells incubated overnight in medium without G418 after which the compound compositions (10 μl) were added. Five 2-fold serial dilutions of extracts or fractions were tested starting at 200 μg/ml final culture concentration. PBS and 3TC (lamivudine) were included as the negative and positive controls, respectively. The treated cells were incubated at 37° C. for 4 days, after which the hepatitis B surface antigen (HBsAg) production in culture supernatants was assayed. The HBsAg released into the culture medium in the presence or absence of test samples was assayed using the BIO-RAD Genetic Systems HBsAg EIA 3.0 kit (Bio-Rad, Redmond, Wash.). This enzyme immunoassay is based on the capture of HBsAg on monoclonal antibody-coated plates. Four- and twelve-fold dilutions of all culture supernatants collected were assayed in triplicate wells of the EIA plate. The percentage inhibition of HBsAg secretion in the presence of the plant samples was calculated against the negative control (PBS).

HBsAg = assay: Anti-HBSAg Assay (Procedure B), HBsAg; format: cell-based, hepatitis B virus; set-up: HBsAg Ave.: unit not given here
Protocol: The HBV-producing human hepatoblastoma cell line, Hep G2 2.2.15 is maintained in DMEM supplemented with 10% fetal bovine serum (FBS), 2 mM glutamine, 100 units/ml penicillin, 100 μg/ml streptomycin at 37° C. under 5% CO2 in air.
Samples were dissolved in DMSO at the concentration of 20 mg/mL, then further diluted with DMEM medium to the appropriate concentration.
Hep G2 2.2.15 cells (120 μl) were seeded onto 96-well plates at a concentration of 2×10^5 cells/mL. The cells incubated for 72 h in the medium without G418, after which the test samples (120 μl) were added. Five 3-fold serial dilutions of samples were tested. PBS and 3TC (lamivudine) were included as the negative and positive controls, respectively. The treated cells were incubated at 37° C. for 9 days; with the medium with sample being changed each 3 days, after which the culture supernatant was removed for analysis of both the hepatitis B surface antigen (HBsAg) production and hepatitis B DNA expression.
The HBsAg released into the culture medium in the presence or absence of test material was assayed using the kit manufactured by Shanghai Siic Kehua Biotech Co., Ltd (Shanghai, China). This enzyme immunoassay is based on the capture of HBsAg on monoclonal antibody-coated plates. Four- and twelve-fold dilutions of all culture supernatants collected were assayed in triplicate wells of the kit plate. The percentage inhibition of HBsAg secretion in the presence of the compound was calculated against the negative control (PBS). The IC50 values, the dose that inhibited viruses by 50%, were calculated using non-linear regression analysis (percent survival versus concentration).

HBeAg = assay: Anti-HBSAg Assay (Procedure B), HBeAg; format: cell-based, hepatitis B virus; set-up: HBeAg Ave: unit not given here
HBV DNA = assay: Anti-HBV DNA Assay; format: cell-based, hepatitis B virus; conditions: for HBV DNA copies/ml: replicates, listed as HP-S3
[2] = Enzyme Hydrolysis Processing Time 0.5 hours
[3] = Enzyme Hydrolysis Processing Time 4.0 hours

COC(=O)C1=COC(O)C2C1CC(O)C2C (mixture of isomers) [RD-8]
HCV Inhibition at 20 μg/mL (HCV/HIV pseudovirions; [2]): 24.8
HCV Inhibition at 20 μg/mL (HCV/HIV pseudovirions; [3]): 41.4
Estimated IC50 (inhibition of HCV JFH1 infectivity) (HCV JFH1): 15 mg/L

COC(=O)C1=COC(O)C2C1C(O)CC2(C)O (mixture of isomers) [RD-16]
HCV Inhibition at 20 μg/mL (HCV/HIV pseudovirions; [2]): 49.0
HCV Inhibition at 20 μg/mL (HCV/HIV pseudovirions; [3]): 61.2
Estimated IC50 (inhibition of HCV JFH1 infectivity) (HCV JFH1): 14 mg/L

OCC1=C[C@@H](O)[C@@H]2C=CO[C@@H](O[C@@H]3O[C@H](CO)[C@@H](O)[C@H](O)[C@H]3O)[C@H]12 [aucubin]
% Control HBSAg [1]: 100%
% Inhibition [1]: 0%
HBsAg Ave. (HBsAg; 12.5 μg/mL): 1.232
HBsAg Inhibition % (HBsAg; 12.5 μg/mL): 0%
HBsAg OD1 (HBsAg; 12.5 μg/mL): 1.196
HBsAg OD2 (HBsAg; 12.5 μg/mL): 1.261
HBsAg OD3 (HBsAg; 12.5 μg/mL): 1.238
HBsAg Ave. (HBsAg; 25 μg/mL): 1.309
HBsAg Inhibition % (HBsAg; 25 μg/mL): 0%
HBsAg OD1 (HBsAg; 25 μg/mL): 1.242
HBsAg OD2 (HBsAg; 25 μg/mL): 1.384
HBsAg OD3 (HBsAg; 25 μg/mL): 1.302
HBsAg Ave. (HBsAg; 50 μg/mL): 1.272
HBsAg Inhibition % (HBsAg; 50 μg/mL): 0%
HBsAg OD1 (HBsAg; 50 μg/mL): 1.218
HBsAg OD2 (HBsAg; 50 μg/mL): 1.375
HBsAg OD3 (HBsAg; 50 μg/mL): 1.222
HBsAg Ave. (HBsAg; 100 μg/mL): 1.292
HBsAg Inhibition % (HBsAg; 100 μg/mL): 0%
HBsAg OD1 (HBsAg; 100 μg/mL): 1.276
HBsAg OD2 (HBsAg; 100 μg/mL): 1.353
HBsAg OD3 (HBsAg; 100 μg/mL): 1.246
HBsAg Ave. (HBsAg; 200 μg/mL): 1.541
HBsAg Inhibition % (HBsAg; 200 μg/mL): 0%
HBsAg OD1 (HBsAg; 200 μg/mL): 1.546
HBsAg OD2 (HBsAg; 200 μg/mL): 1.616
HBsAg OD3 (HBsAg; 200 μg/mL): 1.46
HBeAg Ave (HBeAg; 12.5 μg/mL): 1.378
HBeAg Inhibition % (HBeAg; 12.5 μg/mL): 0%
HBeAg OD1 (HBeAg; 12.5 μg/mL): 1.397
HBeAg OD2 (HBeAg; 12.5 μg/mL): 1.419
HBeAg OD3 (HBeAg; 12.5 μg/mL): 1.318
HBeAg Ave (HBeAg; 25 μg/mL): 1.364
HBeAg Inhibition % (HBeAg; 25 μg/mL): 0%
HBeAg OD1 (HBeAg; 25 μg/mL): 1.332
HBeAg OD2 (HBeAg; 25 μg/mL): 1.369
HBeAg OD3 (HBeAg; 25 μg/mL): 1.390
HBeAg Ave (HBeAg; 50 μg/mL): 1.383
HBeAg Inhibition % (HBeAg; 50 μg/mL): 0%
HBeAg OD1 (HBeAg; 50 μg/mL): 1.357
HBeAg OD2 (HBeAg; 50 μg/mL): 1.437
HBeAg OD3 (HBeAg; 50 μg/mL): 1.354
HBeAg Ave (HBeAg; 100 μg/mL): 1.616
HBeAg Inhibition % (HBeAg; 100 μg/mL): 0%
HBeAg OD1 (HBeAg; 100 μg/mL): 1.707
HBeAg OD2 (HBeAg; 100 μg/mL): 1.479
HBeAg OD3 (HBeAg; 100 μg/mL): 1.662
HBeAg Ave (HBeAg; 200 μg/mL): 1.357
HBeAg Inhibition % (HBeAg; 200 μg/mL): 0%
HBeAg OD1 (HBeAg; 200 μg/mL): 1.350
HBeAg OD2 (HBeAg; 200 μg/mL): 1.305
HBeAg OD3 (HBeAg; 200 μg/mL): 1.415
HBV DNA Average (HBV DNA; 12.5 μg/ml): 1.06 × 10^6 copies/ml
HBV DNA Inhibit (HBV DNA; 12.5 μg/ml): 9.40%
HBV DNA copies/ml (HBV DNA; 12.5 μg/ml): 1.03E+06 copies/ml and 9.68E+05 copies/ml and 1.18E+06 copies/ml
HBV DNA Average (HBV DNA; 25 μg/ml): 1.03 × 10^5 copies/ml
HBV DNA Inhibit (HBV DNA; 25 μg/ml): 1.35%
HBV DNA copies/ml (HBV DNA; 25 μg/ml): 9.52E+05 copies/ml and 1.07E+06 copies/ml and 1.04E+06 copies/ml
HBV DNA Average (HBV DNA; 50 μg/ml): 1.28 × 10^6 copies/ml
HBV DNA Inhibit (HBV DNA; 50 μg/ml): 0.00%
HBV DNA copies/ml (HBV DNA; 50 μg/ml): 1.22E+06 copies/ml and 1.27E+06 copies/ml and 1.35E+06 copies/ml
HBV DNA Average (HBV DNA; 100 μg/ml): 1.32 × 10^6 copies/ml
HBV DNA Inhibit (HBV DNA; 100 μg/ml): 0.00%
HBV DNA copies/ml (HBV DNA; 100 μg/ml): 1.17E+06 copies/ml and 1.15E+06 copies/ml and 1.65E+06 copies/ml
HBV DNA Average (HBV DNA; 200 μg/ml): 1.20 × 10^6 copies/ml
HBV DNA Inhibit (HBV DNA; 200 μg/ml): 0.00%
HBV DNA copies/ml (HBV DNA; 200 μg/ml): 1.38E+06 copies/ml and 9.71E+05 copies/ml and 1.24E+06 copies/ml
inhibition of HCV/HIV entry (HCV/HIV pseudovirions; 100 μg/mL, FIG. 1): inactive

Source: patent US20080319042A1, “Compositions and methods for treatment of liver disease” (priority 2007, published 2008)
